# In patent publication US5932559A, “Treatment of hyperandrogenic conditions” (Merck & Co., Inc., priority 1996, dated 1999):
# Legend:
# [1] = tested on: native human prostate enzyme; conditions: read-out: Km (Faller et al.), neutral pH; cited from earlier work
# [2] = biological target: T1, type 2 5α-reductase (Homo sapiens, UniProt P31213); experiment: Kinetic constants of baculovirus-expressed type 2 5α-reductase under the standard assay conditions; type: biochemical
# T1 construct: made in house
# T1 sequence (P31213 1-254): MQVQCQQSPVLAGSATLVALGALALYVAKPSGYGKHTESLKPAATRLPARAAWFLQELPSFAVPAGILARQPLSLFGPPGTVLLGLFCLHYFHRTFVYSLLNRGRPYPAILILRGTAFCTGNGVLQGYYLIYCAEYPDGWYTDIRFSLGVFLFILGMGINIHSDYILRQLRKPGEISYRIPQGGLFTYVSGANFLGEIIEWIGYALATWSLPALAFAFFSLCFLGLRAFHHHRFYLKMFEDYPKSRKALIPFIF
# Excerpt: Ethanol is included at 1% final concentration as the vehicle for introduction of inhibitors. […] A unit of enzyme activity was defined as 1 pmol product/min, and is equal to 444 fmol enzyme under these conditions.
# When tissue extracts are the source of enzyme, the quenched reactions are clarified by centrifugation at 10,000×g before analysis.
# The molecular weight was taken to be about 30,000 in estimating enzyme purity.
# [3] = tested on: human prostate (type 2) isozyme; conditions: cited from earlier work
# [4] = tested on: human skin (type 1) isozyme; conditions: cited from earlier work
# [5] = tested on: dihydrotestosterone; conditions: after withdrawal of finasteride; cited from earlier work
# [6] = biological target: T1, type 2 5α-reductase; experiment: Progress curves of DHT formation, time course of inhibition of baculovirus expressed type 2 5α-reductase; type: biochemical; conditions: 20 nM inhibitor, pH 7.2, 37° C.
# Method: Ethanol is included at 1% final concentration as the vehicle for introduction of inhibitors. The rate of production of [^3 H]dihydrotestosterone is approximately constant for up to 2 hours or 10% consumption of substrate. A unit of enzyme activity was defined as 1 pmol product/min, and is equal to 444 fmol enzyme under these conditions.
# After quenching the reactions with an equal volume, or more, of water containing 1% trifluoroacetic acid, the [^3 H]dihydrotestosterone is isolated by direct injection onto a reverse phase C-18 column (Vydac 4.6×250 mm, 300 Å, 5 micron), which is run in an isocratic system of 40% water (containing 0.1% trifluoroacetic acid) and 60% methanol at 1 mL/min. […] The effluent containing the [^3 H]dihydrotestosterone peak (6 mL) is collected in a liquid scintillation vial and counted with AQUASOL 2 (14 mL, New England Nuclear) with an efficiency of 0.309. […]
# The native human enzyme was from prostate (type 2) or scalp (type 1) tissue, and the recombinant human enzymes were produced by the baculovirus expression system of Anderson, et al. (Chan, H K, Geissler, W M, Anderson, S, Sex Hormones and Antihormones in Endocrine Dependent Pathology: Basic and Clinical Aspects, M. Motta and M. Serio, eds., Elsevier Science 1994). […] Enzyme concentrations were determined by titration with finasteride, or [^3 H]finasteridem, or from catalytic activity using kcat and Km values. […]
smiles,measurement,setting,value
C[C@]12CC[C@H]3[C@@H](CCC4=CC(=O)CC[C@@]43C)[C@@H]1CC[C@@H]2O [testosterone],Km,[1],0.02 ± 0.003 µM
same,Km,"[2]; baculovirus-expressed type 2, pH 7.2, 37° C., read-out: Km for testosterone",0.0246 ± 0.0007 µM
same,turnover number kcat,"[2]; type 2, pH 7.2, 37° C., by titration with finasteride",0.075 ± 0.006 s⁻¹
"CC(C)(C)NC(=O)[C@H]1CC[C@H]2[C@@H]3CC[C@H]4NC(=O)C=C[C@]4(C)[C@H]3CC[C@]12C [finasteride, 17β-(N-tert-butylcarbamoyl)-3-oxo-4-aza-5α-androst-1-ene-3-one]",rate constant of binding to the human prostate isozyme,"[3]; Faller et al., slow-binding",270000 M⁻¹ s⁻¹
same,"inhibition type, human prostate (type 2) isozyme",[3]; Harris et al.,slow-binding inhibitors
same,"inhibition of type 2 isozyme, in words",[3]; predominates in the prostate,potently inhibited
same,"inhibition of human skin (type 1) isozyme at clinical doses, in words",[4]; at doses employed in the treatment of BPH,not a significant inhibitor
same,"sensitivity of type 1 isozyme, in words",[4]; sebaceous glands of most regions of skin tissue,relatively insensitive
same,type 1 rate constant as percent of the rate constant against the prostate isozyme,[4]; type 1 vs type 2,about 1%
same,time required for dihydrotestosterone to return to basal levels after withdrawal,[5],as long as two weeks
"CCN(CC)C(=O)[C@H]1CC[C@H]2[C@@H]3CC[C@H]4OC(=O)C=C[C@]4(C)[C@H]3CC[C@]12C [L-682,299, 17β-(N-diethyl)carbamoyl-4-oxa-5α-androst-1-en-3-one]",velocity at infinite-time,[6],essentially zero
same,inhibition of the enzyme at infinite time,[6]; inhibition developed slowly with time,total inhibition
